Reference: patent US20230138395A1, “PHARMACEUTICAL COMPOSITIONS OF A THERAPEUTIC POLYENE MACROLIDE AND METHODS OF THEIR USE” (priority 2020, published 2023)
In brackets after ≈: the same amount, converted by molar mass. Several values for one entry are separate records, joined by “and”; a condition that tells them apart may be missing. Equal entries are not always repeated. Where two headings read alike, the source gives them in different places.

Key:
[1] = test system: Blastomyces dermatitidis, Coccidioides immitis, and Histoplasma capsulatum strains; format: cell-based; settings: dimorphic fungal isolates; in µg/mL
Candida albicans [2] = assay: MFC determination; format: cell-based; settings: for MFC Range: in µg/mL; for MFC50: kills 50% of strains; for MFC90: kills 90% of strains
C. glabrata strains [3] = assay: MIC testing (CLSI M27-A3); format: cell-based; design: MIC: unit not given beside the values; settings: for MIC50 / MIC90: C. glabrata; for MIC50: inhibits 50% of strains; for MIC90: inhibits 90% of strains
C. albicans SC5314 [4] = assay: In vitro activity (MFC) against the infecting strain, Example 18; format: cell-based, Candida albicans
[5] = test system: all Aspergillus strains tested; assay: MFC determination, summary; format: cell-based; settings: for MFC50: kills 50% of strains; for MFC90: kills 90% of strains
Cr. neoformans strains = assay: MFC determination; format: cell-based, Cryptococcus neoformans; settings: for MFC Range: Cr. neoformans strains, in µg/mL; for MFC50 / MFC90: Cr. neoformans; for MFC50: kills 50% of strains; for MFC90: kills 90% of strains
[6] = test system: individual Aspergillus spp. (Table 13, species not given); assay: MFC determination, Table 13; format: cell-based; settings: Aspergillus sp. of Table 13; for MFC50: kills 50% of strains; for MFC90: kills 90% of strains
C. glabrata strains [7] = assay: MFC determination; format: cell-based; design: MFC: unit not given beside the values; settings: for MFC Range: C. glabrata strains; for MFC50 / MFC90: C. glabrata; for MFC50: kills 50% of strains; for MFC90: kills 90% of strains
C. parapsilosis = assay: MIC testing (CLSI M27-A3); format: cell-based; design: MIC: unit not given beside the values; settings: for MIC50 / MIC90: C. parapsilosis; for MIC50: inhibits 50% of strains; for MIC90: inhibits 90% of strains
[8] = test system: individual Aspergillus spp. (Table 12, species not named); assay: MIC testing (CLSI M38-A2), Table 12; format: cell-based; settings: Aspergillus sp. of Table 12, caspofungin read as MEC; for MIC50: inhibits 50% of strains; for MIC90: inhibits 90% of strains
Fusarium strains [9] = assay: MFC determination, Table 17; format: cell-based, Fusarium spp.; settings: Fusarium strains (Table 17); for MFC Range: in µg/mL; for MFC50: kills 50% of strains; for MFC90: kills 90% of strains
[10] = test system: individual Aspergillus spp. (Table 13, species not given); assay: MIC testing (CLSI M38-A2), Table 13; format: cell-based; settings: Aspergillus sp. of Table 13, caspofungin read as MEC; for MIC Range: in µg/mL; for MIC50: inhibits 50% of strains; for MIC90: inhibits 90% of strains
A. fumigatus AF91 = assay: In vitro activity (MFC) against the infecting strain, Example 17; format: cell-based, Aspergillus fumigatus
Procedure: Minimum Fungicidal Concentration: MFC determinations were performed according to the modifications previously described by Canton et al., Diagn. Microbiol. Infect. Dis., 45:203-206, 2003, and Ghannoum and Isham, Infectious Diseases in Clinical Practice, 15(4):250-253, 2007.
Specifically, the total contents of each clear well from the MIC assay were subcultured onto potato dextrose agar. To avoid antifungal carryover, the aliquots were allowed to soak into the agar and then were streaked for isolation once dry, thus removing the cells from the drug source. Fungicidal activity is defined as ≥99.9% reduction in the number of colony forming units (CFU)/ml from the starting inoculum count, while fungistatic activity is defined as <99.9% reduction. […] MIC and MFC values are considered to be equivalent if they are within 2 dilutions.

Fusarium strains [11] = assay: MIC testing (CLSI M38-A2), Table 17; format: cell-based, Fusarium spp.; settings: Fusarium strains (Table 17); for MIC50: inhibits 50% of strains; for MIC90: inhibits 90% of strains
[12] = test system: individual Aspergillus spp. (Table 15, species not named); assay: MIC testing (CLSI M38-A2), Table 15; format: cell-based; settings: Aspergillus sp. of Table 15, caspofungin read as MEC; for MIC50: inhibits 50% of strains; for MIC90: inhibits 90% of strains
[13] = test system: Fusarium strains (Table 18); assay: MFC determination, Table 18; format: cell-based, Fusarium spp.; settings: for MFC50: kills 50% of strains; for MFC90: kills 90% of strains
Candida albicans [14] = assay: MIC testing (CLSI M27-A3); format: cell-based; design: MIC: unit not given beside the values; settings: for MIC Range: in µg/mL; for MIC50: inhibits 50% of strains; for MIC90: inhibits 90% of strains
C. krusei strains [15] = assay: MFC determination; format: cell-based; settings: for MFC Range: C. krusei strains, in µg/mL; for MFC50 / MFC90: C. krusei; for MFC50: kills 50% of strains; for MFC90: kills 90% of strains
[16] = test system: individual Aspergillus spp. (Table 14, species not named); assay: MIC testing (CLSI M38-A2), Table 14; format: cell-based; settings: Aspergillus sp. of Table 14, caspofungin read as MEC; for MIC50: inhibits 50% of strains; for MIC90: inhibits 90% of strains
C. krusei strains [17] = assay: MIC testing (CLSI M27-A3); format: cell-based; settings: for MIC Range: C. krusei strains, in µg/mL; for MIC50 / MIC90: C. krusei; for MIC50: inhibits 50% of strains; for MIC90: inhibits 90% of strains
C. albicans SC5314 [18] = assay: In vitro activity (MIC) against the infecting strain, Example 18; format: cell-based, Candida albicans
Penicillium strains = assay: MFC determination; format: cell-based, Penicillium spp.; settings: for MFC50: kills 50% of strains; for MFC90: kills 90% of strains
[19] = test system: Fusarium strains (Table 18); assay: MIC testing (CLSI M38-A2), Table 18; format: cell-based, Fusarium spp.; settings: for MIC50: inhibits 50% of strains; for MIC90: inhibits 90% of strains
Candida albicans SC5314 = assay: Disseminated candidiasis in immunocompromised murine model (BALB/c mice): tissue fungal burden; format: in vivo; settings: Experiment I; 6 mg/kg i.v., 7 days
[20] = Fluconazole-resistant C. albicans n = 7
[21] = Fluconazole-susceptible C. albicans n = 13
[22] = individual C. albicans strain with elevated MICs to non-polyene comparators (Table 22), listed as Flu
[23] = individual C. krusei strain with elevated MICs to non-polyene comparators (Table 22)

## C[C@@H]1[C@H](O)[C@@H](C)/C=C/C=C/C=C/C=C/C=C/C=C/C=C/[C@H](O[C@@H]2O[C@H](C)[C@@H](O)[C@H](N)[C@@H]2O)C[C@@H]2O[C@](O)(C[C@@H](O)C[C@@H](O)[C@H](O)CC[C@@H](O)C[C@@H](O)CC(=O)O[C@H]1C)C[C@H](O)[C@H]2C(=O)O [Amphotericin B]
[1]
  MIC Range: <0.03-0.125
Candida albicans [2]; [20]
  MFC Range: 0.5-1
Candida albicans [2]; [21]
  MFC Range: 0.125-1
  MFC50: 0.25 µg/mL (≈ 0.271 µM)
  MFC90: 1 µg/mL (≈ 1.08 µM)
C. glabrata strains [3]; C. glabrata strains, in µg/mL
  MIC Range: 0.125-1
C. glabrata strains [3]
  MIC50: 0.5 µg/mL (≈ 0.541 µM)
  MIC90: 0.5 µg/mL (≈ 0.541 µM)
C. albicans SC5314 [4]
  MFC: 0.25 µg/mL (≈ 0.271 µM)
[5]
  MFC50: > 8 µg/mL
  MFC90: > 8 µg/mL
Cr. neoformans strains
  MFC Range: 0.25-2
  MFC50: 0.5 µg/mL (≈ 0.541 µM)
  MFC90: 1 µg/mL (≈ 1.08 µM)
[6]
  MFC50: > 8 µg/mL
  MFC90: > 8 µg/mL
C. glabrata strains [7]; in µg/mL
  MFC Range: 0.5-1
C. glabrata strains [7]
  MFC50: 0.5 µg/mL (≈ 0.541 µM)
  MFC90: 1 µg/mL (≈ 1.08 µM)
C. parapsilosis; C. parapsilosis strains, in µg/mL
  MIC Range: 0.125-1
C. parapsilosis
  MIC50: 0.25 µg/mL (≈ 0.271 µM)
  MIC90: 0.5 µg/mL (≈ 0.541 µM)
[8]; in µg/mL
  MIC Range: 1-8
[8]
  MIC50: 8 µg/mL (≈ 8.66 µM)
  MIC90: 8 µg/mL (≈ 8.66 µM)
Fusarium strains [9]
  MFC Range: 1-4
  MFC50: 2 µg/mL (≈ 2.16 µM)
  MFC90: 2 µg/mL (≈ 2.16 µM)
[10]
  MIC Range: 1-2
  MIC50: 1 µg/mL (≈ 1.08 µM)
  MIC90: 2 µg/mL (≈ 2.16 µM)
A. fumigatus AF91
  MFC: 16 µg/mL (≈ 17.3 µM)
Fusarium strains [11]; in µg/mL
  MIC Range: 0.5-2
Fusarium strains [11]
  MIC50: 1 µg/mL (≈ 1.08 µM)
  MIC90: 2 µg/mL (≈ 2.16 µM)
[12]; in µg/mL
  MIC Range: 0.25-16
[12]
  MIC50: 8 µg/mL (≈ 8.66 µM)
  MIC90: 8 µg/mL (≈ 8.66 µM)
[13]
  MFC50: 1 µg/mL (≈ 1.08 µM)
  MFC90: 8 µg/mL (≈ 8.66 µM)
Candida albicans [14]; [20]
  MIC Range: 0.25-1
Candida albicans [14]; [21]
  MIC Range: 0.125-0.5
  MIC50: 0.25 µg/mL (≈ 0.271 µM)
  MIC90: 0.5 µg/mL (≈ 0.541 µM)
C. krusei strains [15]
  MFC Range: 1
  MFC50: 1 µg/mL (≈ 1.08 µM)
  MFC90: 1 µg/mL (≈ 1.08 µM)
[16]; in µg/mL
  MIC Range: 0.25-2
[16]
  MIC50: 1 µg/mL (≈ 1.08 µM)
  MIC90: 1 µg/mL (≈ 1.08 µM)
C. krusei strains [17]
  MIC Range: 0.5-1
  MIC50: 0.5 µg/mL (≈ 0.541 µM)
  MIC90: 1 µg/mL (≈ 1.08 µM)
C. albicans SC5314 [18]
  MIC: 0.125 µg/mL (≈ 0.135 µM)
Penicillium strains
  MFC50: 4 µg/mL (≈ 4.33 µM)
  MFC90: > 8 µg/mL
[19]
  MIC50: 0.5 µg/mL (≈ 0.541 µM)
  MIC90: 2 µg/mL (≈ 2.16 µM)

## OC(Cn1cncn1)(Cn1cncn1)c1ccc(F)cc1F [Fluconazole, fluconazole]
Candida albicans [2]; [20]
  MFC Range: >32
Candida albicans [2]; [21]
  MFC50: > 32 µg/mL
  MFC90: > 32 µg/mL
Candida albicans [2]; [22]
  MFC: >32 (6×) and >64
C. glabrata strains [3]
  MIC50: 8 µg/mL (≈ 26.1 µM)
  MIC90: > 64 µg/mL
C. glabrata strains [3]; individual C. glabrata strain with elevated MICs to non-polyene comparators (Table 22), listed as Flu
  MIC: 32 and 2 and >64 (2×) and 8 and 64
C. albicans SC5314 [4]; Candida albicans, read-out: MFC
  MFC: > 64 µg/mL
[5]
  MFC Range: > 64 µg/mL
  MFC50: > 64 µg/mL
  MFC90: > 64 µg/mL
Cr. neoformans strains
  MFC Range: 2
  MFC50: > 64 µg/mL
  MFC90: > 64 µg/mL
[6]
  MFC Range: 64 µg/mL (≈ 209 µM)
  MFC50: 64 µg/mL (≈ 209 µM)
  MFC90: 64 µg/mL (≈ 209 µM)
C. glabrata strains [7]; in µg/mL
  MFC Range: >64
C. glabrata strains [7]
  MFC50: > 64 µg/mL
  MFC90: > 64 µg/mL
C. glabrata strains [7]; individual C. glabrata strain with elevated MICs to non-polyene comparators (Table 22), in µg/mL
  MFC: >64
C. parapsilosis
  MIC50: 0.5 µg/mL (≈ 1.63 µM)
  MIC90: 0.5 µg/mL (≈ 1.63 µM)
C. parapsilosis; individual C. parapsilosis strain with elevated MICs to non-polyene comparators (Table 22), listed as Flu, in µg/mL
  MIC: 0.25 and 0.5 and 1
[8]
  MIC50: > 64 µg/mL
  MIC90: > 64 µg/mL
Fusarium strains [9]
  MFC Range: >64
  MFC50: > 64 µg/mL
  MFC90: > 64 µg/mL
[10]
  MIC Range: 64
  MIC50: 64 µg/mL (≈ 209 µM)
  MIC90: 64 µg/mL (≈ 209 µM)
Fusarium strains [11]
  MIC50: > 64 µg/mL
  MIC90: > 64 µg/mL
[12]
  MIC50: 64 µg/mL (≈ 209 µM)
  MIC90: > 64 µg/mL
[13]
  MFC Range: > 32 µg/mL
  MFC50: > 32 µg/mL
  MFC90: > 32 µg/mL
Candida albicans [14]; [21]
  MIC Range: 0.125-0.5
  MIC50: 0.25 µg/mL (≈ 0.816 µM)
  MIC90: 0.25 µg/mL (≈ 0.816 µM)
Candida albicans [14]; [22]
  MIC: 32 (2×) and >32 (4×) and >64
C. krusei strains [15]
  MFC Range: >64
  MFC50: > 64 µg/mL
  MFC90: > 64 µg/mL
C. krusei strains [15]; [23]
  MFC: > 64 µg/mL
[16]
  MIC50: > 64 µg/mL
  MIC90: > 64 µg/mL
Candida albicans SC5314
  Brain tissue fungal burden, Mean log CFUs ± the standard deviation: 1.28 ± 1.95 log CFUs
  Kidney tissue fungal burden, Mean log CFUs ± the standard deviation: 3.87 ± 1.53 log CFUs
C. krusei strains [17]
  MIC Range: 2-32
  MIC50: 16 µg/mL (≈ 52.2 µM)
  MIC90: 32 µg/mL (≈ 104 µM)
C. krusei strains [17]; [23]
  MIC: 16 µg/mL (≈ 52.2 µM)
C. albicans SC5314 [18]; Candida albicans, read-out: MIC
  MIC: 0.25 µg/mL (≈ 0.816 µM)
Penicillium strains
  MFC50: > 64 µg/mL
  MFC90: > 64 µg/mL
[19]; in µg/mL
  MIC Range: >32
[19]
  MIC50: > 32 µg/mL
  MIC90: > 32 µg/mL
